Assay results reported in PMC6813460, “Enhancing PLP-Binding Capacity of Class-III ω-Transaminase by Single Residue Substitution” (Frontiers in Bioengineering and Biotechnology, 2019).

Assays:
[1] = target: T1, CvTA (Chromobacterium violaceum, UniProt Q7NWG4, V124N); assay: biochemical
T1 construct: gene CV_2025

[2] = target: T2, HeTA (Halomonas elongata, UniProt E1V913, N120V); assay: differential scanning fluorimetry (SYPRO Orange), T1/[…] vs PLP, 1-site fit; type: binding
T2 construct: gene spuC; IMAC-purified recombinant from E. coli BL21 (DE3) Star; dimer

[3] = target: T3, CvTA (Chromobacterium violaceum, UniProt Q7NWG4); assay: as above; type: binding
T3 construct: gene CV_2025; IMAC-purified recombinant from E. coli BL21 (DE3) Star; dimer
T3 sequence (Q7NWG4 1-459): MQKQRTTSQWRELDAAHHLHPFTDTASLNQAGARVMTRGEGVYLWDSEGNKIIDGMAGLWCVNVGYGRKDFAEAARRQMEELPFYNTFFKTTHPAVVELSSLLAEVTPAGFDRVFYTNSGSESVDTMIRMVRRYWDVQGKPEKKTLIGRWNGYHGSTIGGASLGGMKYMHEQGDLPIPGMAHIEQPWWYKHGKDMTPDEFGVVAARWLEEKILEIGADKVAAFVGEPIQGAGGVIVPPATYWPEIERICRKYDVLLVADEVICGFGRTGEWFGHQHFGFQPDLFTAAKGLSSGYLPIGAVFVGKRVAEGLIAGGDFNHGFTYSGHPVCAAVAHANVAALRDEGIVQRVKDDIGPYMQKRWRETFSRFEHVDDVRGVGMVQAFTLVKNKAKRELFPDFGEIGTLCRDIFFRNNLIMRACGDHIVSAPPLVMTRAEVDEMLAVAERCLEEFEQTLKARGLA

[4] = target: PfTA (Pseudomonas fluorescens); assay: as above; type: binding; details: apo form, 1 mg/mL protein, PLP 1–250 μM, 50 mM phosphate pH 8; cofactor forms internal aldimine (covalent)
[5] = target: T4, HeTA (Halomonas elongata, UniProt E1V913); assay: as above; type: binding
T4 construct: gene spuC; IMAC-purified recombinant from E. coli BL21 (DE3) Star; dimer
T4 sequence (E1V913 1-461): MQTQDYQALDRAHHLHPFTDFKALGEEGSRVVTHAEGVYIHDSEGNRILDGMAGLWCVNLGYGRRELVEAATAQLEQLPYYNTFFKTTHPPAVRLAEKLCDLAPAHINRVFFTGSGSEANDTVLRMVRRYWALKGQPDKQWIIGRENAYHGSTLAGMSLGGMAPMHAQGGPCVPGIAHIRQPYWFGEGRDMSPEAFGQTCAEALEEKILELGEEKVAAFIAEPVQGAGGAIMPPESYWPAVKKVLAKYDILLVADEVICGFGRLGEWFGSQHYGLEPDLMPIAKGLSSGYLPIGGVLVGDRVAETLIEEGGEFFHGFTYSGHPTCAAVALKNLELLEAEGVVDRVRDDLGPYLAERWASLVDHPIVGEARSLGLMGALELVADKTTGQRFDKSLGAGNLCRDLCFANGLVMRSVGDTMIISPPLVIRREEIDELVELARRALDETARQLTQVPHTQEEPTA

[6] = target: Pseudomonas fluorescens ω-transaminase (Pseudomonas fluorescens); assay: crystal structure; PfTA crystallised with PLP; sitting drop vapor diffusion at 20°C; 6 mg/mL protein in 50 mM HEPES pH 7.5, 300 mM NaCl, 0.1 mM PLP, 1% glycerol, 20 mM DTT mixed 1:1 with 0.1 M sodium citrate pH 5.6, 12% w/v PEG 6000, 0.1 M lithium sulfate; 2.2 Å; interfaces analysed with the PISA server

T2 sequence (E1V913 entry or part of it N120V): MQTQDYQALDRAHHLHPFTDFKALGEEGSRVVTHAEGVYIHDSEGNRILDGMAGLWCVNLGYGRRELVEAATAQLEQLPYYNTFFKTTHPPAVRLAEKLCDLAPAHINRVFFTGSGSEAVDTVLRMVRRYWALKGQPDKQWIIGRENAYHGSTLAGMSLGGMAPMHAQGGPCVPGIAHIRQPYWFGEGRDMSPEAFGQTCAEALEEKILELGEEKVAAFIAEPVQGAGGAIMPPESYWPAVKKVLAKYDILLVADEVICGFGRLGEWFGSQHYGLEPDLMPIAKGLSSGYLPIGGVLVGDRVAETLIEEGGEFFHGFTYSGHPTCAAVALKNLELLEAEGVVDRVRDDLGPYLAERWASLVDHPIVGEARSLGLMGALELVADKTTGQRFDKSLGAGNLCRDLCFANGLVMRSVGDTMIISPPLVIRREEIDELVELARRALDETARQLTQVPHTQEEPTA

Molecule: Cc1ncc(COP(=O)(O)O)c(C=O)c1O [PLP]
- Kd [1]: 16.4 ± 5.6 µM
- Kd [2]: 30.3 ± 4.1 µM
- Kd [3]: 59 ± 15.8 µM
- Kd [4]: 14.8 ± 2.5 µM
- Kd [5]: 12.4 ± 3.6 µM

Molecule: Pseudomonas fluorescens ω-transaminase (enzyme)
- stoichiometry N [6]: 4
